The target of one experiment is T1, RGS8 (Homo sapiens, UniProt P57771).
T1 construct: RGS8 full length; made in house
T1 sequence (P57771 1-180): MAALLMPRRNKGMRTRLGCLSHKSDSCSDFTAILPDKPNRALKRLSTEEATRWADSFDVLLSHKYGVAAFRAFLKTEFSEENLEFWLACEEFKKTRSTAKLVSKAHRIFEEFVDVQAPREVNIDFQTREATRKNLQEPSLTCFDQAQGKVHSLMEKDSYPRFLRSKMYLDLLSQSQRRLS
The experiment in a line: FCPIA, Gαo binding to RGS8. Here is the method: We recently described a bead-based screen in which 2.5 × 10^6 different peptide sequences were prepared as a OBOC library. Fluorescently labeled RGS4 was used to probe the library for peptides that bind RGS4 [5]. […] Since the majority of those hit peptides could bind tightly to the RGS without disrupting GAP activity, they were also tested in the flow cytometry protein interaction assay (FCPIA) (Figure 1), which measures the interaction between RGS4 and Gαo. In this method we used a Luminex flow cytometer to detect the binding of Alexa Fluor 532-labeled Gαo to biotinylated RGS4 on avidin beads in the presence of AMF (AlCl3, MgCl2, NaF and GDP) to put the Gα subunit into a transition state-like conformation. Peptides were tested at 50 μM except where limited by solubility (Table 1).
5nd inhibited Gαo binding to a number of different RGS proteins (Figure 2). […] RGS19 and RGS7 are in the RZ and R7 families, respectively and show less inhibition by 5nd. Linear as well as bridged versions of peptide 5 were tested in the FCPIA since cyclization yields would most likely have been less then 100% in the synthesis of the library leaving some linear peptides present on each bead. […] This may be due to lack of structural rigidity necessary for the correct interaction of the peptide with the RGS protein or a role for chemical reactivity of the disulfide.
Figure 2 Characterization of hit 5. A) and B) Dose response curves for 5nd in the FCPIA with different RGS proteins (RGS Family), (mean ± S.E.M., n = 3) *p < 0.05, **p < 0.01, ***p < 0.001 compared to RGS4 at the same 5nd concentration. C) Peptides were tested at 50 μM as in Figure 1, (mean ± S.E.M., n ≥ 3) *p < 0.05, **p < 0.01, ***p < 0.001 compared to no peptide.
Figure 3 Irreversibility experiments. RGS-biotin on avidin beads was treated with 5nd (100 μM) or 5nm (100 μM) and then washed in buffer (with or without 1 mM DTT) or not washed and put in the FCPIA using RGS4 (A) or RGS8 (B) (mean ± S.E.M., n ≥ 2) *p < 0.05, **p < 0.01, ***p < 0.001 compared to no peptide (100%); #p < 0.05, ##p < 0.01, ###p < 0.001 compared to 5nd no wash.
Proteins were expressed, purified and labeled as described previously. The mutagenesis was done using the "QuickChange Multi Site-Directed Mutagenesis Kit" from Stratagene according to the manufacturer's protocol. The construct of RGS4 used in these studies is a maltose binding protein (MBP-) fusion protein of the RGS4 sequence from which the amphipathic N-terminal helix has been removed (i.e. MBP-RGS4Δ51N). For simplicity in the text, this will be referred to as RGS4. All other RGS proteins were human sequences and were used as Mpb fusions: RGS7 RGS domain (aa: 305–453), RGS8 full length, RGS16 full length, and RGS19ΔC11 (amino acids 1–209). […]

The target in another experiment is T2, RGS4 C132A (Rattus norvegicus, UniProt P49799, C132A).
T2 construct: made in house
T2 sequence (P49799 52-205 C132A limits assumed): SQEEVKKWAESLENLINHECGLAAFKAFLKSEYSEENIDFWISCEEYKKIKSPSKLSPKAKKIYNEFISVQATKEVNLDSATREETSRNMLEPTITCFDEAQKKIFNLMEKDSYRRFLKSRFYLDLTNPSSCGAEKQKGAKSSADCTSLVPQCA
Description: FCPIA, RGS4 cysteine mutant C132A. It counts as binding. To be noted: read-out: 5nd logIC50 (converted). Here is the method:
(§1) Figure 5 Dose curves of 5nd on various RGS4 cysteine mutants. Various concentrations of 5nd were tested for disruption of the RGS4-Gαo interaction for C95A (5 nM), or […], C71A (5nM) or C148A (5nM) (B), A95C in the -7C (5nM), or A132C in the -7C (5nM) (C), A71C in the -7C (5nM), or A148C in the -7C (5nM) (D) or the mutant with no cysteines in the domain (20 nM) or the C-terminus (20 nM) (E) in the FCPIA (mean ± S.E.M., n ≥ 3).
Proteins were expressed, purified and labeled as described previously. The mutagenesis was done using the "QuickChange Multi Site-Directed Mutagenesis Kit" from Stratagene according to the manufacturer's protocol. The construct of RGS4 used in these studies is a maltose binding protein (MBP-) fusion protein of the RGS4 sequence from which the amphipathic N-terminal helix has been removed (i.e. MBP-RGS4Δ51N). For simplicity in the text, this will be referred to as RGS4. All other RGS proteins were human sequences and were used as Mpb fusions: RGS7 RGS domain (aa: 305–453), RGS8 full length, RGS16 full length, and RGS19ΔC11 (amino acids 1–209). To cleave RGS4Δ51N from the MBP-His6 construct for MS analysis, MBP-His6-RGS4Δ51N was treated with 15% MBP-His6-TEV protease S219V [11] for 22 hours at 4°C and purified over a Ni-NTA column.
FCPIA was performed as previously published.

In the next experiment the target is T3, RGS4 -7C (Rattus norvegicus, UniProt P49799, C132A/C148A/C183A/C197A/C204A/C71A/C95A).
T3 construct: made in house
The experiment in a line: FCPIA, RGS4 -7C mutant (all 7 cysteines removed). The experiment is classed as binding. The settings on record: read-out: 5nd logIC50 (converted). Here is the method:
Since 5nd forms an irreversible, DTT-sensitive bond with RGS, it was suspected that it binds covalently to a cysteine in the protein through a disulfide bridge. Indeed, removal of all 7 cysteines (termed the -7C mutant) from RGS4 greatly diminished 5nd activity (logIC50 of -3.24 ± 0.14 for -7C vs. -4.36 ± 0.02 for wild type) (Figure 5, Table 2).
as §1
(§2) Proteins were expressed, purified and labeled as described previously. The mutagenesis was done using the "QuickChange Multi Site-Directed Mutagenesis Kit" from Stratagene according to the manufacturer's protocol. The construct of RGS4 used in these studies is a maltose binding protein (MBP-) fusion protein of the RGS4 sequence from which the amphipathic N-terminal helix has been removed (i.e. MBP-RGS4Δ51N). For simplicity in the text, this will be referred to as RGS4. […]

The next experiment deals with T4, RGS4 A148C, -7C (Rattus norvegicus, UniProt P49799, C132A/C183A/C197A/C204A/C71A/C95A).
T4 construct: made in house
T4 sequence (P49799 52-205 C71A/C95A/C132A/C183A/C197A/C204A): T2 sequence (P49799 52-205 C132A limits assumed) with C20A, C44A, C132A, C146A, C153A
The experiment in a line: FCPIA, RGS4 A148C in the -7C. The experiment is classed as binding. To be noted: read-out: 5nd logIC50 (converted). The protocol:
as §1
(§3) The previous experiments tested which cysteines are necessary for inhibition by 5nd. In an alternative approach, we added cysteines back to the -7C mutant to determine which might be sufficient for 5nd activity. […] Furthermore, Cys132 is involved in the actions but this is clearly not sufficient to explain them. Thus it is concluded that 5nd is at least partially non-selective in its cysteine modification.
as §2

In a further experiment the target is T5, RGS4 A71C, -7C (Rattus norvegicus, UniProt P49799, C132A/C148A/C183A/C197A/C204A/C95A).
T5 construct: made in house
The experiment in a line: FCPIA, RGS4 A71C in the -7C. To be noted: read-out: 5nd logIC50 (converted). The experiment is classed as binding. Here is the method:
as §1, §3, §2

Positions count from the first letter of the chain named. Like-named read-outs stand apart in the source and are kept apart here. Where a SMILES comes first, the peptide text is derived from it. Bridges are numbered along the chain shown (N, C = ends).

From article PMC2700083, “A covalent peptide inhibitor of RGS4 identified in a focused one-bead, one compound library screen” (BMC Pharmacology, 2009) come the findings set out here.

T3 sequence (P49799 52-205 C71A/C95A/C132A/C148A/C183A/C197A/C204A): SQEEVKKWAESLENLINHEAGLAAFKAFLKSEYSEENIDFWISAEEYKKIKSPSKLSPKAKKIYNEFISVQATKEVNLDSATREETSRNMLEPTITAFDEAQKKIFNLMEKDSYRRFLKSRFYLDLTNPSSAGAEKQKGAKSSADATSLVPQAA
T5 sequence (P49799 52-205 C95A/C132A/C148A/C183A/C197A/C204A): as the sequence (P49799 52-205 C71A/C95A/C132A/C148A/C183A/C197A/C204A) above, with A20C counted along it

Take `CC(C)C[C@@H]1NC(=O)CNC(=O)[C@H](CCCCN)NC(=O)[C@@H](NC(=O)[C@H](Cc2c[nH]c3ccccc23)NC(=O)[C@@H](N)Cc2ccc(O)cc2)CSSC[C@@H](C(=O)N[C@@H](CCCCN)C(N)=O)NC1=O` [Peptide 5nd, Tyr-Trp-c [Cys-Lys-Gly-Leu-Cys]-Lys-NH2, S-S] (H-YWCKGLCK-NH2; disulfide 3-7): the inhibition at 100 µM turned out to be 10 ± 3% on RGS8 (beads washed in buffer with 1 mM DTT, read-out: percent inhibition, RGS8, DTT wash); 50 ± 3% at RGS8 (beads washed in buffer without DTT, read-out: percent inhibition, RGS8, wash); 64 ± 2% on RGS8 (no wash, read-out: percent inhibition, RGS8). The IC50 at RGS4 C132A is 138 µM; on RGS4 -7C, 575 µM; at RGS4 A148C, -7C, 309 µM; at RGS4 A71C, -7C it was 631 µM.
